Data from patent US20260209152A1, “Substituted Hydroxystilbene Compounds and Derivatives, Synthesis and Uses Thereof” (Kynan Duke IP, LLC, priority 2019, published 2026).
Like-named read-outs stand apart in the source and are kept apart here. Values belong to the molecule of their own block, whether it stands above or below them.

Key:
Assay in all cases: CellTiter Glo cell viability assay
[1] = system: Lung NCI-H2126; format: cell-based, human; settings: for IC50: Homo sapiens
Outline: (§1)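 Cells seeded at 1.7*10^3/well in quadruplicate; compounds at 18 two-fold dilutions from 5 μM (0.000038146-5 μM), or at 1, 2, 5, 10 and 20 μM. CellTiter Glo luminescence read on days 1, 3 and 5 after treatment. IC50 by nonlinear regression of luminescence versus log dose.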

[2] = system: Osteosarcomas SAOS-2; format: cell-based, human; settings: for IC50: Homo sapiens
Outline: as §1

[3] = system: Osteosarcomas Hs888.T; format: cell-based, human; settings: for IC50: Homo sapiens, 72 h, 3 Days of treatment, 18 2-fold dilutions 5-0.00003 μM
Outline: as §1

[4] = system: Liver Huh7; format: cell-based, human; settings: for IC50: Homo sapiens, Huh-7, 72 h, 3 Days of treatment, 18 2-fold dilutions 5-0.00003 μM
Outline: as §1

[5] = system: Connective Tissue Sarcoma HT-1080; format: cell-based, human; settings: for IC50: Homo sapiens, HT-1080, 72 h, 3 Days of treatment, 18 2-fold dilutions 5-0.00003 μM
Outline: as §1

[6] = system: Bladder TCCSUP; format: cell-based, human; settings: for IC50: Homo sapiens, TCC-SUP, 72 h, 3 Days of treatment, 18 2-fold dilutions 5-0.00003 μM
Outline: as §1

[7] = system: Bladder SCABER; format: cell-based, human; settings: for IC50: Homo sapiens
Outline: as §1

[8] = system: Bladder HT-1197; format: cell-based, human; settings: for IC50: Homo sapiens
Outline: as §1

[9] = system: Liver HepG2; format: cell-based, human; settings: for IC50: Homo sapiens
Outline: as §1

[10] = system: Pancreatic BxPC3; format: cell-based, human; settings: for IC50: Homo sapiens
Outline: as §1

[11] = system: Kidney Caki-2; format: cell-based, human; settings: for IC50: Homo sapiens
Outline: as §1

[12] = system: Pancreatic HPAC; format: cell-based, human; settings: for IC50: Homo sapiens, HPAC, 72 h, 3 Days of treatment, 18 2-fold dilutions 5-0.00003 μM
Outline: as §1

[13] = system: Lung NCI-H1563; format: cell-based, human; settings: for IC50: Homo sapiens
Outline: as §1

[14] = system: Bladder UMUC_3; format: cell-based, human; settings: for IC50: Homo sapiens
Outline: as §1

[15] = system: Tongue SCC-4; format: cell-based, human; settings: for IC50: Homo sapiens
Outline: as §1

[16] = system: Pharynx FADU; format: cell-based, human; settings: for IC50: Homo sapiens
Outline: as §1

[17] = system: Pharynx DETROIT; format: cell-based, human; settings: for IC50: Homo sapiens
Outline: as §1

[18] = system: Lung A549; format: cell-based, human; settings: for IC50: Homo sapiens, A549, 72 h, 3 Days of treatment, 18 2-fold dilutions 5-0.00003 μM
Outline: as §1

[19] = system: Lung NCI-H1437; format: cell-based, human; settings: for IC50: Homo sapiens
Outline: as §1

[20] = system: Kidney 786-O; format: cell-based, human; settings: for IC50: Homo sapiens, 786-0, 72 h, 3 Days of treatment, 18 2-fold dilutions 5-0.00003 μM
Outline: as §1

[21] = system: Breast 4T1; format: cell-based; settings: Table 5B: 11 dilutions 3-0.00001 μM; Exp N
Procedure: 1.7*10^3 cells/well were seeded in quadruplicates in 96-well plate after plating. Drugs were added at 5 μM and 2-fold dilutions over 18 concentrations (0.000038146-5 […] range) to generate a dose-response curve. Cell growth was assessed on day 1, 3 and 5 after drug treatments using the CellTiter Glo Luminescence Cell Viability Assay (Promega) according to manufacturer's protocol. Thermo Scientific Varioskan LUX Multimode Microplate instrument was used for plate reading. Data are expressed as mean luminescence (arbitrary units) ±S.D.
Cell Viability Assays were employed to determine the concentration of Compound 1 (KYN-001) and analogues where the response is reduced by half. For each treatment of cancer cells, 1, 2, 5, 10 and 20 μM solutions of compounds were applied. GraphPad Prism 7 software was used to fit dose response curves. Relative Luminescence Units were plotted against the log values of the doses used and the nonlinear regression model was used for data analysis.

[22] = NCI-H2126, 72 h, 3 Days of treatment, 18 2-fold dilutions 5-0.00003 μM, read-out: Average IC50
[23] = NCI-H2126/CCL-256, 11 dilutions 3-0.00001 μM, read-out: IC50
[24] = SAOS-2, 72 h, 3 Days of treatment, 18 2-fold dilutions 5-0.00003 μM, read-out: Average IC50
[25] = Saos-2/HTB-85, 11 dilutions 3-0.00001 μM, read-out: IC50
[26] = SCaBER, 72 h, 3 Days of treatment, 18 2-fold dilutions 5-0.00003 μM, read-out: Average IC50
[27] = SCaBER/HTB-3, 11 dilutions 3-0.00001 μM, read-out: IC50
[28] = HT1197, 72 h, 3 Days of treatment, 18 2-fold dilutions 5-0.00003 μM, read-out: Average IC50
[29] = HT1197, HT-1197/CRL-1473, 11 dilutions 3-0.00001 μM, read-out: IC50
[30] = HepG2, 72 h, 3 Days of treatment, 18 2-fold dilutions 5-0.00003 μM, read-out: Average IC50
[31] = HepG2, Hep G2/HB-8065, 11 dilutions 3-0.00001 μM, read-out: IC50
[32] = BXPC-3, 72 h, 3 Days of treatment, 18 2-fold dilutions 5-0.00003 μM, read-out: Average IC50
[33] = BxPC-3/CRL-1687, 11 dilutions 3-0.00001 μM, read-out: IC50
[34] = CAKI-2, 72 h, 3 Days of treatment, 18 2-fold dilutions 5-0.00003 μM, read-out: Average IC50
[35] = Caki-2/HTB-47, 11 dilutions 3-0.00001 μM, read-out: IC50
[36] = NCI-H1563, 72 h, 3 Days of treatment, 18 2-fold dilutions 5-0.00003 μM, read-out: Average IC50
[37] = NCI-H1563/CRL-5875, 11 dilutions 3-0.00001 μM, read-out: IC50
[38] = UMUC3, 72 h, 3 Days of treatment, 18 2-fold dilutions 5-0.00003 μM, read-out: Average IC50
[39] = UMUC3, UM-UC-3/CRL-1749, 11 dilutions 3-0.00001 μM, read-out: IC50
[40] = SCC-4, 72 h, 3 Days of treatment, 18 2-fold dilutions 5-0.00003 μM, read-out: Average IC50
[41] = SCC-4/CRL-1624, 11 dilutions 3-0.00001 μM, read-out: IC50
[42] = FaDu, 72 h, 3 Days of treatment, 18 2-fold dilutions 5-0.00003 μM, read-out: Average IC50
[43] = Fadu/HTB-43, 11 dilutions 3-0.00001 μM, read-out: IC50
[44] = 72 h, 3 Days of treatment, 18 2-fold dilutions 5-0.00003 μM, read-out: Average IC50
[45] = Detroit 562/CCL-138, 11 dilutions 3-0.00001 μM, read-out: IC50
[46] = NCI-H1437, 72 h, 3 Days of treatment, 18 2-fold dilutions 5-0.00003 μM, read-out: Average IC50
[47] = NCI-H1437/CRL-5872, 11 dilutions 3-0.00001 μM, read-out: IC50
[48] = IC50 of 1 [KYN-001] vs 8 [KYN-119], 3 Days

IC50 [1, 22]: 75.4 nM | IC50 [1, 23]: 106 nM | IC50 [4]: 78.9 nM | IC50 [5]: 36.7 nM | IC50 [9, 30]: 212 nM | IC50 [9, 31]: 577 nM | IC50 [10, 32]: 1060 nM | IC50 [10, 33]: 944 nM | IC50 [13, 36]: 449 nM | IC50 [13, 37]: 184 nM | IC50 [18]: 163 nM | IC50 [19, 46]: 347 nM | IC50 [19, 47]: 143 nM | IC50 [20]: 334 nM | IC50 [21]: 117 nM
SMILES: COc1cc(/C=C/c2cc(O)cc(OC)c2CC=C(C)C)ccc1O [Compound 1, (E)-3-(4-hydroxy-3-methoxystyryl)-5-methoxy-4-(3-methylbut-2-en-1-yl)phenol]
IC50 [2, 24]: 110 nM | IC50 [2, 25]: 173 nM | IC50 [3]: 210 nM | IC50 [6]: 294 nM | IC50 [7, 26]: 33.7 nM | IC50 [7, 27]: 65 nM | IC50 [8, 28]: 258 nM | IC50 [8, 29]: 108 nM | IC50 [11, 34]: 1120 nM | IC50 [11, 35]: 426 nM | IC50 [12]: 4990 nM | IC50 [14, 38]: 31.3 nM | IC50 [14, 39]: 333 nM | IC50 [15, 40]: 100 nM | IC50 [15, 41]: 39.5 nM | IC50 [16, 42]: 74.4 nM | IC50 [16, 43]: 139 nM | IC50 [17, 44]: 1170 nM | IC50 [17, 45]: 131 nM

IC50 [1, 22]: 1.73 nM | IC50 [1, 23]: 33.1 nM | Fold IC50 [1, 48]: 44 | IC50 [4]: 20.6 nM | Fold IC50 [4, 48]: 3.8 | IC50 [5]: 17.3 nM | Fold IC50 [5, 48]: 2.1 | IC50 [9, 30]: 20.2 nM | IC50 [9, 31]: 296 nM | Fold IC50 [9, 48]: 11 | IC50 [10, 32]: 355 nM | IC50 [10, 33]: 387 nM | Fold IC50 [10, 48]: 3.0 | IC50 [13, 36]: 19.5 nM | IC50 [13, 37]: 54.5 nM | Fold IC50 [13, 48]: 23 | IC50 [18]: 30.9 nM | Fold IC50 [18, 48]: 5.3 | IC50 [19, 46]: 16.6 nM | IC50 [19, 47]: 32.7 nM | Fold IC50 [19, 48]: 21 | IC50 [20]: 64.8 nM | Fold IC50 [20, 48]: 5.1
SMILES: CCOc1cc(O)cc(/C=C/c2ccc(O)c(OC)c2)c1CC=C(C)C [Compound 8, (E)-3-Ethoxy-5-(4-hydroxy-3-methoxystyryl)-4-(3-methylbut-2-en-1-yl)phenol]
IC50 [2, 24]: 15.4 nM | IC50 [2, 25]: 79.1 nM | Fold IC50 [2, 48]: 7.2 | IC50 [3]: 26.1 nM | Fold IC50 [3, 48]: 8.1 | IC50 [6]: 112 nM | Fold IC50 [6, 48]: 2.6 | IC50 [7, 26]: 10.1 nM | IC50 [7, 27]: 27.3 nM | Fold IC50 [7, 48]: 3.3 | IC50 [8, 28]: 11.5 nM | IC50 [8, 29]: 48.5 nM | Fold IC50 [8, 48]: 22 | IC50 [11, 34]: 281 nM | IC50 [11, 35]: 524 nM | Fold IC50 [11, 48]: 4.0 | IC50 [12]: 1970 nM | Fold IC50 [12, 48]: 2.5 | IC50 [14, 38]: 5.48 nM | IC50 [14, 39]: 54.8 nM | Fold IC50 [14, 48]: 5.7 | IC50 [15, 40]: 23.9 nM | IC50 [15, 41]: 23.2 nM | Fold IC50 [15, 48]: 4.2 | IC50 [16, 42]: 37.1 nM | IC50 [16, 43]: 54.1 nM | Fold IC50 [16, 48]: 2.0 | IC50 [17, 44]: 438 nM | IC50 [17, 45]: 76.6 nM | Fold IC50 [17, 48]: 2.7

IC50 [1, 23]: 97 nM | IC50 [9, 31]: 234 nM | IC50 [10, 33]: 1410 nM | IC50 [13, 37]: 74.1 nM | IC50 [19, 47]: 73.2 nM
SMILES: CCOc1cc(O)cc(/C=C/c2ccc(O)c(O)c2)c1CC=C(C)C [Compound 20, (E)-4-(3-Ethoxy-5-hydroxy-2-(3-methylbut-2-en-1-yl)styryl)benzene-1,2-diol]
IC50 [2, 25]: 129 nM | IC50 [7, 27]: 53.7 nM | IC50 [8, 29]: 61.7 nM | IC50 [11, 35]: 302 nM | IC50 [14, 39]: 126 nM | IC50 [15, 41]: 31.3 nM | IC50 [16, 43]: 80.1 nM | IC50 [17, 45]: 122 nM

SMILES: COc1cc(/C=C/c2cc(O)cc(OC)c2CC=C(C)C)ccc1NC=O [Compound 27, (E)-N-(4-(5-hydroxy-3-methoxy-2-(3-methylbut-2-en-1-yl)styryl)-2-methoxyphenyl)formamide]
IC50 [1, 23]: 31 nM | IC50 [2, 25]: 42.4 nM | IC50 [7, 27]: 10.9 nM | IC50 [8, 29]: 17.1 nM | IC50 [9, 31]: 251 nM | IC50 [10, 33]: 302 nM | IC50 [11, 35]: 1550 nM | IC50 [13, 37]: 59.8 nM | IC50 [14, 39]: 30.2 nM | IC50 [15, 41]: 11.4 nM | IC50 [16, 43]: 28.6 nM | IC50 [17, 45]: 20.3 nM | IC50 [19, 47]: 32.2 nM | IC50 [21]: 29.2 nM

IC50 [1, 23]: 10.7 nM | IC50 [9, 31]: 99.1 nM | IC50 [10, 33]: 175 nM | IC50 [13, 37]: 15.9 nM | IC50 [19, 47]: 25.9 nM
SMILES: CCOc1cc(O)cc(/C=C/c2ccc(NC=O)c(OC)c2)c1CC=C(C)C [Compound 28, (E)-N-(4-(3-Ethoxy-5-hydroxy-2-(3-methylbut-2-en-1-yl)styryl)-2-methoxyphenyl)formamide]
IC50 [2, 25]: 23.3 nM | IC50 [7, 27]: 6 nM | IC50 [8, 29]: 12.2 nM | IC50 [11, 35]: 69.8 nM | IC50 [14, 39]: 21.3 nM | IC50 [15, 41]: 3.1 nM | IC50 [16, 43]: 11.8 nM | IC50 [17, 45]: 11.4 nM
